One molecule from US20250340538A1, “IMIDAZOLONE DERIVATIVES AS INHIBITORS OF PROTEIN KINASES IN PARTICULAR DYRK1A, CLK1 AND/OR CLK4” (PERHA PHARMACEUTICALS, priority 2021, published 2025) can be followed below.

Experiment [1] has as its target T1, DYRK2 (Homo sapiens, UniProt Q92630).
T1 construct: GST-fusion or His-tag (not specified per kinase); purchased ProQinase GmbH; host or cells: Sf9 insect cells or E. coli (not specified per kinase)
T1 sequence (Q92630 1-601): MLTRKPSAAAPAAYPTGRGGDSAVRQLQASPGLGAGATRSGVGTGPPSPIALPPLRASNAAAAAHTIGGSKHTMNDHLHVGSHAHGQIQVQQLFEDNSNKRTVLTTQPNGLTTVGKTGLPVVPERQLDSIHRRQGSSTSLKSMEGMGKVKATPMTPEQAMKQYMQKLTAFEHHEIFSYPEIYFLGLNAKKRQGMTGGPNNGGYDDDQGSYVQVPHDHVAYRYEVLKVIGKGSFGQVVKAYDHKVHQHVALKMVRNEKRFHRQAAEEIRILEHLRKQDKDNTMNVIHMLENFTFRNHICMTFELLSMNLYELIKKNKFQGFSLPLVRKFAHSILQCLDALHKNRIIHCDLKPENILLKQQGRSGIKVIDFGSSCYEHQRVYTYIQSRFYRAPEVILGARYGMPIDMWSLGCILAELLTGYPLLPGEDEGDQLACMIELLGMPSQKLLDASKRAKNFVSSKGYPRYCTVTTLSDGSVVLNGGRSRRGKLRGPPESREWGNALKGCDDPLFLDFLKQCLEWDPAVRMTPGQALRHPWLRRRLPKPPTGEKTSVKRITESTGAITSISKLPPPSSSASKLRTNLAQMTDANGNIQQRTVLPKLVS
As to the kind of experiment: Radiometric protein kinase assay (33PanQinase Activity Assay), DYRK2. It is filed as biochemical. The following applies: read-out: IC50 on DYRK2 (most potent DYRK2 inhibitors). A digest of the protocol: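 Recombinant human kinases (GST- or His-tagged, full-length or active fragments, from Sf9 or E. coli) were run in the radiometric 33PanQinase assay with [γ-33P]-ATP. Compounds were tested at 10 concentrations from 10 μM to 30 nM in 1% DMSO, incubated 60 min at 30 °C, and IC50 derived from dose-response curves.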

Experiment [2] has as its target T2, DYRK4 (Homo sapiens, UniProt Q9NR20).
T2 construct: GST-fusion or His-tag (not specified per kinase); purchased ProQinase GmbH; host or cells: Sf9 insect cells or E. coli (not specified per kinase)
T2 sequence (Q9NR20 1-520): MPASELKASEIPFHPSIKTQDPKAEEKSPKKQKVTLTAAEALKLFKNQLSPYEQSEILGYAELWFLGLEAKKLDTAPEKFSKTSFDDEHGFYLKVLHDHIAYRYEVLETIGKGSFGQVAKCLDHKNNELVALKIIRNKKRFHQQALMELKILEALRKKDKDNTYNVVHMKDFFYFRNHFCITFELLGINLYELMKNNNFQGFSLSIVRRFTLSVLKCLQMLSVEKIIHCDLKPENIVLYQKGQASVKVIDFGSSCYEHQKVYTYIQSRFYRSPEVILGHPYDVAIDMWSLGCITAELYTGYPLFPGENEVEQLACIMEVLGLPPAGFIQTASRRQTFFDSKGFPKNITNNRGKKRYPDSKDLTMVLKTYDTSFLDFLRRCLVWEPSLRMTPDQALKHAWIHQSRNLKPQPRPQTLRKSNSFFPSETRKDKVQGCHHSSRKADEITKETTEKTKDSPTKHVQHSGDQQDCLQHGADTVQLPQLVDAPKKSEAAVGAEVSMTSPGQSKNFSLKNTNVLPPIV
The experiment is described as follows: Radiometric protein kinase assay (33PanQinase Activity Assay), DYRK4. It is filed as biochemical. The following applies: read-out: IC50 on DYRK4 (most potent DYRK4 inhibitors). The procedure:
Assays were performed by ProQinase GmbH (Engesserstr. 4, D-79108 Freiburg, Germany. www.proqinase.com). The IC50 profile of all compounds was determined using 12 protein kinases (CDK2/cyclin E, CK1ε, CLK1, 2, 3, 4, DYRK1A, 1B, 2, 3, 4, GSK3β).
The compounds were provided as […] in 100% DMSO. Prior to testing, the 1 μM stock solutions were subjected to a serial, semi-logarithmic dilution using 100% DMSO as a solvent. […] In the process, 90 μl H2O were added to each well of each compound dilution plate. To minimize potential precipitation, the H2O was added to each plate only a few minutes before the transfer of the compound solutions into the assay plates. The plate was shaken thoroughly, resulting in a compound dilution plate/10% DMSO.
For the assays (see below), 5 μL solution from each well of the compound dilution plates/10% DMSO were transferred into the assay plates. The final volume of the assay was 50 μL. All compounds were tested at 10 final assay concentrations in the range from 10 μM to 30 nM. The final DMSO concentration in the reaction cocktails was 1% in all cases. […]
The reaction cocktails were incubated at 30° C. for 60 minutes. […] Incorporation of ^33Pi was determined with a microplate scintillation counter (Microbeta, Wallac). The IC50 values for all compounds were calculated from the dose response curves […]

Structures are written as SMILES.

As to `O=C1NC(NC23CC4CC(CC(O)(C4)C2)C3)=N/C1=C\c1ccc2ncccc2c1` [Compound 50, (4Z)-2-[(3-hydroxy-1-adamantyl)amino]-4-(6-quinolylmethylene)-1H-imidazol-5-one], the IC50 in experiment [1] is not above 250 nM; in experiment [2], not above 300 nM.

By IC50 is commonly meant the concentration at which inhibition is half-maximal.
